The values that follow come from PMC9920260, “Chemical Modification of Auranofin Yields a New Family of Anticancer Drug Candidates: The Gold(I) Phosphite Analogues” (Molecules, 2023).

Like-named read-outs stand apart in the source and are kept apart here.

Data set [1] can be described thus: Water solubility by quantitative 1H NMR of saturated solution. The note with it: saturated solution in D2O, heated to 40 °C and sonicated 90 min, cooled to room temperature, quantitative 1HNMR vs Me2SO2. The format is physicochemical. Here is the method:
(§1) For determining the solubility of investigated compounds, 5 mg of the selected gold(I) complex was suspended in an Eppendorf test tube with 300 μL of D2O and 300 μL of a Me2SO2/D2O solution 6.94 mM (Me2SO2 final conc. 3.47 mM). The suspension was heated to 40 °C and sonicated for 90 min. The resulting saturated solution was left to cool to room temperature, decanted, transferred to an NMR tube and then analyzed through quantitative ^1HNMR spectroscopy (tilt angle = 45°; recycle delay = 4 s; number of scans = 16). The concentration (solubility) was calculated by the relative integral (related to phosphine or phosphite -CH3 groups) with respect to Me2SO2 singlet (δ = 3.14 ppm). LogP values were determined through a modification of the shake-flask method reported in [22]. More precisely, in a 15 mL Falcon tube, roughly 2 mg of the sample was added in 2 mL of n-octanol-saturated water and 2 mL of water-saturated n-octanol. The mixture was hand shaken for ten minutes, and then 0.5 mL of each phase were moved in two different mineralization tubes together with 1 mL of metal-free concentrated nitric acid. The mixtures were heated overnight at 90 °C, then diluted with 4.5 mL of ultrapure water. The gold concentration in each sample was determined through ICP-OES and the respective LogP values were calculated through the ratio between octanol and water gold concentrations.

Details of data set [2]: method as in PMID 29057040. The note with it: reported values; cited from earlier work.
Data set [3] deals with A2780 ovarian cancer cells. In words: MTT cytotoxicity assay, A2780. The format is cell-based, human. The note with it: A2780, 72 h of treatment, three independent experiments. How it is done: (§2) RPMI 1640 cell culture medium, fetal bovine serum (FBS), and phosphate-buffered saline (PBS) were obtained from Euroclone (Milan, Italy). Thiazolyl blue tetrazolium bromide (MTT) was obtained from Merck Life Science (Milan, Italy). The human ovarian cancer cell lines A2780, A2780/CDDP-R (cisplatin-resistant) and SKOV3 were obtained from ATCC. Cell lines were maintained in RPMI-1640 supplemented with 10% fetal calf serum (FCS) and antibiotics (penicillin, 100 U/mL; streptomycin, 100 μg/mL) at 37 °C in a 5% CO2 humidified atmosphere and subcultured twice weekly. Split 1:5 (3–6 × 10^4 cells per mL).
(§3) The cytotoxic effects of auranofin analogues on ovarian cancer cell lines were determined by using the colourimetric MTT (3-(4,5-dimethylthiazol-2-yl)-2,5-diphenyltetrazolium bromide) assay. Viable cells can metabolize MTT into formazan, a blue-coloured compound that is detectable at 595 nm. […] Following precipitation, blue formazan was dissolved in 100 µL of DMSO, and the optical density was read in a microplate reader interfaced with Microplate Manager/PV version 4.0 software (BioRad Laboratories, Hercules, CA, USA). From the absorbance measurements, the half-maximal inhibitory concentration (IC50) value of each compound on ovarian cancer cells was calculated using GraphPad Prism software version 6.0 (Graphpad Holdings, LLC, Boston, MA, USA). […]

Data set [4] relates to SKOV-3 ovarian cancer cells. In words: MTT cytotoxicity assay, SKOV-3. The format is cell-based, human. The note with it: SKOV-3, 72 h of treatment, three independent experiments. How it is done: as §2, §3
On the technique in general: Tetrazolium assays rely on reduction of a dye to a coloured formazan, in cell work by metabolically active cells.

The test system of data set [5] is cisplatin-resistant A2780 (A2780R) ovarian cancer cells. Description: MTT cytotoxicity assay, A2780R. The format is cell-based, human. The note with it: 72 h of treatment, three independent experiments. How it is done: as §2, §3
The nature of data set [6]: LogP, modified shake-flask method with ICP-OES gold determination. The class given is physicochemical. The note with it: n-octanol/water, gold concentration by ICP-OES. Here is the method: as §1
The test system of data set [7] is thioredoxin reductase (TrxR). The conditions noted are these: A2780 cells, 24 h of treatment at the 72 h exposure IC50 dose. How it is done:
The analysis was performed in triplicate.
Experiments were performed in triplicate.

Data set [8] relates to thioredoxin reductase (TrxR). More on the design: method as in PMID 32497830. The conditions noted are these: auranofin, previously demonstrated; cited from earlier work.

The LogP is the decadic logarithm of the partition coefficient of the neutral form, usually between octanol and water. In data set [1], `CCP(CC)CC.[Au+].[Cl-]` [Au(PEt3)Cl] yielded a Water solubility of 0.68 millimolar. For the same molecule, the LogP in data set [2] is 1.7.

`CC[P](CC)(CC)[Au][I]` [Au(PEt3)I] registered a Water solubility in data set [1] of 0.08 millimolar. In addition, the LogP in data set [2] was 4.6.

One may read the IC50 as the concentration at which inhibition is half-maximal. For the molecule `CO[PH](OC)(OC)[Au][S]C1OC(COC(C)=O)C(OC(C)=O)C(OC(C)=O)C1OC(C)=O` (stereo not shown) [AuP(OCH3)3SAtg], the IC50 in data set [3] came to 1260 ± 220 nM; in data set [4], 2440 ± 320 nM; in data set [5], 2980 ± 230 nM. Also, the Water solubility in data set [1] was determined as 2.76 millimolar. The molecule further returned a LogP in data set [6] of −0.7. For the same molecule, the “residual TrxR enzyme activity with respect to controls” value in data set [7] is “about 55%”.

For `CC(=O)OC[C@H]1O[C@@H]([S-])[C@H](OC(C)=O)[C@@H](OC(C)=O)[C@@H]1OC(C)=O.CCP(CC)CC.[Au+]` [auranofin, 1-Thio-β-D-glucopyranosatotriethylphosphine gold-2,3,4,6-tetraacetate], the “inhibition of TrxR activity” value in data set [8] is listed as 40–50%. The Water solubility in data set [1] came out at 0.34 millimolar. For the same molecule, the LogP in data set [2] is reported as 1.6.
